Test results from publication PMC9090388, “Design, synthesis, biological evaluation and QSAR analysis of novel N-substituted benzimidazole derived carboxamides” (Journal of Enzyme Inhibition and Medicinal Chemistry, 2022).
Where “and” joins values, the source holds several entries; their conditions need not be identical. Identical values can stand only once.

What was measured:
[1] = Ferric reducing/antioxidant power (FRAP assay); type: biochemical; details: triplicate; – = not active in the FRAP assay
Method: The FRAP method was carried out according to previously described procedures with some modifications to be compatible with an assay on a 96-well microplate. All results were expressed as Fe^2+ equivalents (Fe^2+ µmol).

[2] = test system: HCT116 (colon carcinoma); assay: Antiproliferative activity in vitro, MTT, 72 h; type: cell-based; details: Homo sapiens, HCT-116, 72 h, concentration that causes 50% growth inhibition
Method: (§1) The experiments were performed on four human cell lines, including HCT 116 (colon carcinoma), H 460 (lung carcinoma), MCF-7 (breast carcinoma) and HEK 293 (human embryonic kidney cells), in line with previously published experimental procedures[10]^,[25]. Briefly, the cells were grown in DMEM medium with the addition of 10% foetal bovine serum (FBS), 2 mM L-glutamine, 100 U/mL penicillin and 100 µg/mL streptomycin, and cultured as monolayers at 37 °C in a humidified atmosphere with 5% CO2. Cells were seeded at 2 × 10^3 cells/well in a standard 96-well microtiter plates and left to attach for 24 h. Next day, a test compound was added in five serial 10-fold dilutions. The rate of cell growth was evaluated after 72 h of incubation with MTT reagent. The obtained results are expressed as IC50 values, calculated from the concentration-response curves using linear regression analysis by fitting the test concentrations that give PG values above and below the reference value (i.e. 50%). Each test was performed in quadruplicate in at least two individual experiments.

[3] = test system: MCF-7 (breast carcinoma); assay: Antiproliferative activity in vitro, MTT, 72 h; type: cell-based; details: Homo sapiens, MCF7, concentration that causes 50% growth inhibition
Method: as §1

[4] = test system: HEK 293 (human embryonic kidney cells); assay: Antiproliferative/cytotoxic activity in vitro on non-tumour cells, MTT, 72 h; type: cell-based; details: for IC50: Homo sapiens, HEK293, non-tumour cell line, concentration that causes 50% growth inhibition, 72 h, MTT
Method: as §1

[5] = DPPH free radical scavenging (reducing activity of the stable radical DPPH); type: biochemical; details: DPPH 50 µM in absolute ethanol; – = did not show any DPPH activity
Method: The reducing activity of investigated systems was achieved by the DPPH method according to previously described procedures with modifications to assure the use in a 96-well microplate. Briefly, equal volumes of various concentrations of tested molecules (dissolved in DMSO) were added to the solution of DPPH (final concentration 50 µM in absolute ethanol). Ethanol and DMSO were used as control solutions in line with earlier reports.[27]

[6] = test system: Nrf2; assay: Western blot analysis of Nrf2 in cytoplasmic and nuclear fraction; type: cell-based, human; details: HCT116 cells, 1 h; 34 at 50 µM, 40 at 5 µM, hydrogen peroxide 4 mM
Method: Cell line HCT116 was seeded in 60 mm cell culture dishes (TPP, Switzerland) in a concentration of 9 × 10^5 cells/dish. Next day, the cells were treated with 4 mM hydrogen peroxide as a positive control for ROS induction and with compounds 34 and 40 (50 µM and 5 µM, respectively) for 1 h. Nuclear extracts from the cells were prepared using nuclear extraction buffer kit (Abcam, Cambridge, UK, ab113474) according to the manufacturer instructions. BCA assay (Sigma Aldrich, Taufkirchen, Germany) was performed for the determination of the protein concentration in nuclear and cytoplasm fractions. Denaturation of 1 μg of total proteins in Laemmli SDS loading buffer was performed at 95 °C for 5 min. After loading, 10% SDS poly-acrylamide gel electrophoresis was carried out and then proteins were transferred to nitrocellulose membranes. Afterwards, the membranes were blocked in blocking buffer (ImmobilonBlock – CH (Chemiluminescent Blocker), MerckKGaA, Darmstadt, Germany) and incubated 5 h at room temperature with primary antibody dissolved in ImmobilonBlock – CH (Chemiluminescent Blocker). After the membranes were washed three times for five minutes each with Tris-buffered saline with 0.5% Tween 20 (TBST), they were incubated in the corresponding secondary antibody for 1 h at room temperature or overnight at 4 °C. After washing with TBST, the membranes were processed for enhanced chemiluminescence (ECL) Clarity Max Western ECL Substrate (Bio-Rad Laboratories, Hercules, CA, USA) and captured using Odyssey Fc (LICOR, Bad Homburg, Germany). The primary antibody used was anti-Nrf2, (dilution 1:500, Anti-Nrf2 antibody: ab133347, Abcam), Histon H3 (dilution 1:2000, Anti-H3 antibody: Ab1791, Abcam), β-actin (dilution 1:500, sc-47778, Santa Cruz Biotechnology) and corresponding secondary HRP-conjugated IgG antibody (dilution 1:2000, mouse IgGκ, Santa Cruz Biotechnology).
Figure 5. Nrf2 protein levels in the cytoplasmic and the nuclear fraction of HCT116 cells, assessed by Western blot analysis. […]

[7] = test system: H 460 (lung carcinoma); assay: Antiproliferative activity in vitro, MTT, 72 h; type: cell-based, human; details: Homo sapiens, NCI-H460, 72 h, concentration that causes 50% growth inhibition; 72 h, MTT
Method: as §1

SMILES | FRAP [1] | IC50 [2] [µM] | IC50 [3] [µM] | cytotoxicity towards non-tumour cell line compared with tumour cells ([4]; HEK 293 versus tumour cancer cells) | IC50 [4] [µM] | IC50 [5] | translocation of Nrf2 to the nucleus (nuclear expression of Nrf2) [6] | IC50 [7] [µM]
CC(C)Cn1c(NC(=O)c2ccccc2)nc2ccc(C#N)cc21 [Compound 40, N-(6-Cyano-1-isobutyl-1H-benzo[d]imidazol-2-yl)benzamide] | 203.50 ± 10.53 mmolFe^2+/mmolC | ~0.6 | 2.2 ± 1.9 | significantly less cytotoxic towards non-tumour cell line HEK 293 | 9.1 ± 1 | 11500 ± 1500 µM | did not promote the translocation of Nrf2 to the nucleus | –
OO [hydrogen peroxide, reference compound] | – | – | – | – | – | – | significantly higher in the nucleus | –
COc1ccc(C(=O)Nc2nc3ccc(C#N)cc3n2C)c(OC)c1 [Compound 34, N-(6-Cyano-1-methyl-1H-benzo[d]imidazol-2-yl)-2,4-dimethoxybenzamide] | 618.10 mmolFe^2+/mmolC and 618.10 ± 66.10 mmolFe^2+/mmolC | 47.6 ± 30 | 46.9 ± 35.4 | – | 93.3 ± 2.3 | ~5680 µM and 5680 µM | did not promote the translocation of Nrf2 to the nucleus | 21.9 ± 2.9
